According to US20140093884A1, “Process for Identifying Novel Anti-Inflammatory Molecules with Reduced Direct Transrepression of Genes Induced by Glucocorticoids” (UNIVERSITE DE STRASBOURG, priority 2011, published 2014):

Key:
[1] = system: VDRE reporter plasmid (IR nGRE element deleted); experiment: Luciferase reporter assay in A549 cells, VDRE reporter without IR1 nGRE; type: cell-based, human; conditions: FA addition
Procedure: Luciferase reporter assay. A549 cells seeded on 24-well tissue culture plates overnight at 70% confluency were transfected with 100 ng pCMV β galactosidase, 200 ng pGL3 reporter plasmids and wherever indicated, with 600 ng pSG5 hVDR plasmid (Green et al., 1988) into each well and maintained in medium containing charcoal treated FCS. 24 hours post-transfection, medium was changed and different compounds were added to it for 6 hours. Final concentrations of the compounds are: FA, 500 nM; Dex or RU24858, 300 nM or 500 nM (wherever 300 nM Dex or RU was used, it is indicated in the figure, in all other cases, 500 nM concentration was used); active vitamin D3, 1 μM; IL-1β, 5 ng/ml; BAY 11-7082, 5 μM, JNK inhibitor II, 25 μM. Luciferase assay was carried out as instructed (Promega). Normalized values are reported as the mean±SEM; each value originates from at least three individual transfections with assays performed in duplicate. […]

GR binding to IR nGREs = target: T1, GR binding to IR nGREs (Homo sapiens, UniProt P04150); experiment: ChIP assay of GR binding to IR0 to IR5 nGRE reporter plasmids in A549 cells; type: cell-based; conditions: upon FA addition
T1 construct: GR-expressing cells are in vitro cultured cells, preferably human lung epithelial carcinoma cells A549; endogenous in cells; host or cells: A549 (CCL-185, ATCC)
T1 sequence (P04150 1-777): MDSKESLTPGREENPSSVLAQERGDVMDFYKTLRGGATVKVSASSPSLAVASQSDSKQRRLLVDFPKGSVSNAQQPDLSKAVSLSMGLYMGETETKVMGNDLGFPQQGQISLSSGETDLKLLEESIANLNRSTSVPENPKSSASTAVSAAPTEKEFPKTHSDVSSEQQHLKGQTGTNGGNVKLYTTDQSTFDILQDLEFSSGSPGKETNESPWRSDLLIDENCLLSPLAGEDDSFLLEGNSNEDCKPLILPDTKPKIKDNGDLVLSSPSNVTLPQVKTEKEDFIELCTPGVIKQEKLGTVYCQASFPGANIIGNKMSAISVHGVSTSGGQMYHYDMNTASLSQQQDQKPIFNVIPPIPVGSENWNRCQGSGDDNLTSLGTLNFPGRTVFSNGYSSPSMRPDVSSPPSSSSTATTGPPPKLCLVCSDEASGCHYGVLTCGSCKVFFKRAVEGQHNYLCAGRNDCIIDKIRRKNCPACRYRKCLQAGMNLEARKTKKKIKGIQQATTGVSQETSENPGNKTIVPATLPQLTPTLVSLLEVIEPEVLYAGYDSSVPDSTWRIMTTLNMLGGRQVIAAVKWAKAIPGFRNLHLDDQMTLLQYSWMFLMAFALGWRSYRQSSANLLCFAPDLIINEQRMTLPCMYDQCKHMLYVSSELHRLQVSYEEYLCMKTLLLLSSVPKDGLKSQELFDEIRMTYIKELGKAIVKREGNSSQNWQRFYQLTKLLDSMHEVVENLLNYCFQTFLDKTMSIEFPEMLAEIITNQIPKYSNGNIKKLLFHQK
Procedure: For ChIP assays to test GR and cofactor binding to the nGRE, +GRE or NFκB region of various luciferase reporter plasmids, ˜60% confluent A549 cells in 100 mm TC dish were transfected with 2 μg of respective plasmids using fugene 6 reagent (Roche) and maintained in charcoal treated FCS containing medium. 44 hours post-transfection, 500 nM FA or Dex or RU24858 and/or 5 μM RU486, 5 ng/ml IL-1β (final conc.) was added to the medium for 2 hours, followed by formaldehyde treatment and processing as described above.
To investigate whether the 1 bp spacer between the inverted repeated motifs of TSLP IR1 nGRE was critical for its repressing function, pGL3-based luciferase plasmids containing the VDRE and TSLP nGRE motifs spaced by 0 to 5 bases (IR0 to IR5 nGREs) were transfected into A549 cells.

GR binding to IR0 nGRE (ChIP) (GR binding to IR nGREs): less efficient | GR binding to IR1 and IR2 nGREs (ChIP) (GR binding to IR nGREs): similarly bound | GR binding to IR3, IR4 and IR5 nGREs (ChIP) (GR binding to IR nGREs): not detectable
SMILES: CC1(C)O[C@@H]2C[C@H]3[C@@H]4C[C@H](F)C5=CC(=O)C=C[C@]5(C)[C@@]4(F)[C@@H](O)C[C@]3(C)[C@]2(C(=O)CO)O1 [FA, fluocinolone acetonide]
luciferase expression in absence of IR1 nGRE [1]: did not affect
